{
  "source": "patent US8858995B2",
  "about": "“Methods and compositions for controlled delivery of phytochemical agents” (priority 2008, dated 2014)",
  "key": {"[1]": {"settings": "extruded implants"}, "[2]": {"assay": "Tissue curcuminoid levels after coated implants (UPLC)", "assay_type": "in vivo, A/J mice", "settings": "female, A/J, mouse", "protocol": "Briefly, liver and brain tissues (500 and 400 mg, respectively) from each animal were homogenized in 3 ml PBS (pH 7.4) containing 200 μl of 0.5 M sodium acetate, and extracted with ethyl acetate. After evaporation of the pooled extracts, the residue was reconstituted in 100 μl acetonitrile and analyzed by UPLC using Shimadzu UPLC system (Kyoto, Japan), with a Shim-Pack XR-ODS II reverse phase column (Shimadzu; 150×3.0 mm i.d., 2.2 μm)."}, "[3]": {"tested_on": "17β-estradiol-induced mammary tumors", "assay_type": "in vivo, ACI rats", "settings": "for animals that developed palpable tumors: control 100% after 26 wks", "excerpt": "Cancer chemoprevention approaches have been used to manipulate tumorigenesis and reduce the transformation of normal/pre-cancerous cells to malignancy. Many compounds that have worked in cell culture studies though have failed in animal models and clinical trials due to lack of bioavailability. Additionally, the high doses required to elicit biological response can be toxic. The following experiments were designed to test the hypothesis that the effective dose of phytochemical agents, administered systemically via implantation of a silastic implant incorporating the agents, can be reduced substantially compared with the traditional dietary route and were also designed to determine the effect of individual phytochemical agents on mammary carcinogenesis. The silastic implants used in the experiments described below were fabricated by filling silastic tubing with a desired agent. Although the silastic implants are not biodegradable like compositions disclosed herein comprising biocompatible polymeric matrices, the silastic implants provide proof of concept that a reduced dose of phytochemical agents administered systemically can be effective in inhibiting mammary carcinogenesis.\nInitially, an experiment was performed by subcutaneously implanting individual phytochemical agents using a large number of animals per group (n=17-19). […] Two weeks later, all groups received 3 cm biocompatible silastic implants incorporating 27 mg of 17β-estradiol. Six months later, after all animals had developed mammary tumors, the animals were euthanized and the mammary tumors were counted and their size measured. […] However, 30-55% reductions were found in the tumor burden with all test agents (FIG. 23A) as measured by tumor volume, with ellagic acid resulting in the most significant reduction in tumor burden (55%). The foregoing results thus support the effectiveness of ellagic acid, a significant component in certain berries, as an exemplary phytochemical compound that can be administered via a biocompatible silastic implant to inhibit or reduce estrogen-induced ACI rat mammary carcinogenicity.\nTo further evaluate the effectiveness of ellagic acid in estrogen-induced mammary carcinogenicity and to determine whether the effective dose of ellagic acid administered systemically via a biocompatible silastic implant can be reduced substantially compared with the traditional dietary route, ellagic acid was administered either in the diet (400 ppm) or by subcutaneous implantation of a biocompatible silastic implant incorporating an effective amount of ellagic acid (27 mg/implant, 4 implants). […] All groups received diet and water ad libitum. The body weight and diet consumption were recorded weekly. The animals were palpated for mammary tumors, and were euthanized when the largest tumor reached >1 cm. The first tumor in the control group appeared after nearly 84 days. However, the first tumor appearance with ellagic acid implants or ellagic acid-supplemented diet was somewhat delayed by 2 and 3 weeks, respectively. The control group reached 100% tumor incidence after 26 wks, but only 75% or 69% of the animals developed palpable tumors in the groups that received ellagic acid by implants or diet, respectively. […] Similar reductions were also observed in the tumor multiplicity (4.00±0.63 and 4.80±0.4 tumors/rat with implant and diet, respectively versus 6.77±0.87 in the control group) (FIG. 24A).\nThe total amount of ellagic acid administered during the entire duration of the study by diet was 800 mg/rat while the subcutaneous implantation of the biocompatible silastic implant incorporating ellagic acid delivered only 1.48±0.87 mg per implant, as determined by HPLC measurement of the material left in implants recovered after termination."}, "DNA adducts in the liver": {"tested_on": "DNA adducts in the liver", "assay": "Liver DNA adducts after a bolus dose of dibenzo[a,1]pyrene (32P-postlabeling)", "assay_type": "in vivo, Sprague-Dawley rats", "settings": "2 cm PCL:cyclodextrin (9:1) matrix, 10% w/w; bolus dibenzo[a,1]pyrene; 5 days after carcinogen", "description": "Eleven days later, the animals were treated with a bolus dose of dibenzo[a,1]pyrene. The animals were then euthanized 5 days after the carcinogen treatment and liver samples were collected."}, "DBP-DNA adducts": {"tested_on": "DBP-DNA adducts", "assay": "Dibenzo[a,I]pyrene (DBP)-DNA adducts in lung (32P-postlabeling)", "assay_type": "in vivo, A/J mice", "settings": "two 1.5 cm coated implants; DBP implant; 3 weeks", "protocol": "(§1) To assess the coated implants (i.e., where the compositions were in the form of coatings), in vivo studies were also performed. […] All groups of animals were also treated with dibenzo[a,I]pyrene (DBP) via polymeric implants (1-cm, 1.4 mm dia, 5% DBP load) at the same time. Implants were grafted subcutaneously, and animal were euthanized after 3 weeks. […] In both cases, animals were euthanized by CO2 asphyxiation and selected tissues (lung, liver and brain) were collected and stored at −80° C. until processing. Implants were also recovered, dried under vacuum and stored in amber vials under argon at 4° C. until analysis.\nTo analyze the formation of DNA adducts, DNA was isolated from lung tissue (200 mg) by treatment of the isolated crude nuclei with RNases and proteinase K, followed by extractions with phenol, phenol:Sevag and Sevag. DNA was recovered by ethanol precipitation and its concentration was measured spectrophotometrically considering 1 A260 equals 50 μg DNA. DNA adducts were analyzed by nuclease P1-mediated ^32P-postlabeling/TLC assay and expressed as adducts per 10^9 nucleotides."}, "[4]": {"assay": "In vitro release from coated (and extruded) polymeric implants", "assay_type": "physicochemical", "protocol": "To formulate the “coated” polymeric implants, blank P-80 implants (1.4 mm dia) were then prepared by dissolving P-80:F68 (9:1) in dichloromethane, followed by evaporation of the solvent in a Petri dish under hood and extrusion of the molten polymer through a silastic tubing mold, similar to the methodologies described herein above. […] For coating, one end of the blank implant (2.5-3.5 cm) was inserted into a silastic tube plug (6 mm long, 1.4 mm dia) while the other end of the plug was attached with a pipet tip. Coatings were then added by dipping the blank implant into the solution with intermittent drying with cool air using a commercial hair dryer and placing them under hood. […] The assembly was placed under hood overnight to remove the residual DCM, implants were excised in 1 or 2 cm lengths and stored in amber vials under argon at -20° C. until used. The rate of in vitro release for the implants was subsequently measured. […] The vials were placed in a water bath (Julabo S W 23, Seelback, Germany) at 37° C. with constant agitation at 110 rpm. The medium was changed every 24 h."}, "[5]": {"settings": "mouse, sc", "protocol": "as §1\nThe supernatants were diluted with ethanol:DCM (80:20) and their concentrations were measured spectrophotometrically at maximal absorbance and the concentrations were calculated against standard curves of individual compounds."}, "[6]": {"tested_on": "human lung cancer A549 cell xenografts", "assay": "Human lung cancer xenograft inhibition by withaferin A", "assay_type": "in vivo, athymic nude mice", "protocol": "Additionally, to assess the effect of the implants on tumor xenografts, five- to six-week old female athymic nude mice (Harlan Laboratories, Indianapolis, Ind.) were acclimated for a week and then inoculated with human lung cancer (A549) cells (3×10^6 cells) in matrigel. […] Animals were weighed and the tumors were measured by a digital caliper weekly. At the end of 6 to 8 weeks, animals were euthanized by CO2 asphyxiation, tumors were collected and measured."}, "breast cancer incidence": {"tested_on": "breast cancer incidence", "settings": "pre-menopausal women with a family history of breast cancer, high consumption; cited from earlier work"}},
  "note": "Like-named read-outs stand apart in the source and are kept apart here.",
  "data": [
    {"molecule": "CC(=O)OC(C)(C)/C=C/C(=O)[C@](C)(O)[C@H]1[C@H](O)C[C@@]2(C)[C@@H]3CC=C4[C@H](C[C@H](O)C(=O)C4(C)C)[C@]3(C)C(=O)C[C@]12C", "note": "[cucurbitacin B]", "values": [
      {"measurement": "burst release and local toxicity", "setting": "[1]", "value": "burst release phenomenon and sign of local toxicity"}
    ]},
    {"molecule": "COc1cc(/C=C/C(O)=C/C(=O)/C=C/c2ccc(O)cc2)ccc1O", "note": "[curcuminoid II, demethoxycurcumin]", "values": [
      {"measurement": "concentration at 21 days", "setting": "[2]; in vivo", "value": 1, "unit": "ng/g"}
    ]},
    {"molecule": "O=C(/C=C/c1ccc(O)cc1)CC(=O)/C=C/c1ccc(O)cc1", "note": "[curcuminoid III, bisdemethoxycurcumin]", "values": [
      {"measurement": "concentration at 21 days", "setting": "[2]; brain, subcutaneous, 2 1.5 cm implants (60 mg/implant, approximately 10% drug load), delivered individually by implant, 21 days, read-out: level in brain tissue", "value": 6.4, "unit": "ng/g"},
      {"measurement": "concentration at 21 days", "setting": "[2]; liver, subcutaneous, 2 1.5 cm implants (60 mg/implant, approximately 10% drug load), delivered individually, two 1.5-cm implants, 21 days, read-out: level in the liver", "value": "5 to 6", "unit": "ng/g"}
    ]},
    {"molecule": "O=c1oc2c(O)c(O)cc3c(=O)oc4c(O)c(O)cc1c4c23", "note": "[ellagic acid]", "values": [
      {"measurement": "reduction in tumor burden (tumor volume)", "setting": "[3]; 3 cm silastic implant, 27 mg agent, six months", "value": 55, "unit": "%"},
      {"measurement": "tumor multiplicity", "setting": "[3]; diet", "value": "4.80±0.4", "unit": "tumors/rat"},
      {"measurement": "delay of first tumor appearance", "setting": "[3]; diet 400 ppm", "value": 3, "unit": "weeks"},
      {"measurement": "animals that developed palpable tumors", "setting": "[3]; diet 400 ppm", "value": 69, "unit": "%"},
      {"measurement": "tumor burden", "setting": "[3]; dietary 400 ppm", "value": "269±61", "unit": "mm^3"},
      {"measurement": "tumor multiplicity", "setting": "[3]; implant", "value": "4.00±0.63", "unit": "tumors/rat"},
      {"measurement": "tumor burden", "setting": "[3]; implant (slow release)", "value": "454±105", "unit": "mm^3"},
      {"measurement": "animals that developed palpable tumors", "setting": "[3]; implants", "value": 75, "unit": "%"},
      {"measurement": "amount delivered per implant over the study", "setting": "[3]; rat, in vivo", "value": "1.48±0.87", "unit": "mg per implant"},
      {"measurement": "delay of first tumor appearance", "setting": "[3]; silastic implants, 27 mg/implant, 4 implants", "value": 2, "unit": "weeks"}
    ]},
    {"molecule": "Cc1c(-c2cnccn2)ssc1=S", "note": "[oltipraz]", "values": [
      {"measurement": "DNA adducts in the liver", "setting": "DNA adducts in the liver", "value": "reduced the amount of B[a]P-induced DNA adducts"},
      {"measurement": "lung DBP-DNA adduct levels", "setting": "DBP-DNA adducts", "value": "reduction was statistically significant"},
      {"measurement": "release in PBS alone", "setting": "[4]; 37° C., no serum", "value": "essentially no release"},
      {"measurement": "release kinetics", "setting": "[4]; PBS with 10% bovine serum, 60 days", "value": "essentially zero-order kinetics"},
      {"measurement": "cumulative release after 60 days", "setting": "[4]; in vitro", "value": "~27", "unit": "%"},
      {"measurement": "cumulative release over 3 weeks (21 days)", "setting": "[4]; in vitro, PBS with 10% bovine serum", "value": "about 12%"},
      {"measurement": "total release in vivo at the end of 3 weeks", "setting": "[5]", "value": 18.6, "unit": "%"}
    ]},
    {"molecule": "CC1=C(CO)C(=O)O[C@@H]([C@@H](C)[C@H]2CC[C@H]3[C@@H]4C[C@H]5O[C@]56[C@@H](O)C=CC(=O)[C@]6(C)[C@H]4CC[C@]23C)C1", "note": "[withaferin A]", "values": [
      {"measurement": "lung DBP-DNA adduct levels", "setting": "DBP-DNA adducts", "value": "reduction in the DNA adduct levels"},
      {"measurement": "total dose administered via the implants", "setting": "[6]; calculated from residual amount in the implants, versus 5.6 mg i.p.", "value": 2.69, "unit": "mg"},
      {"measurement": "reduction in the growth of the tumor", "setting": "[6]; coated implants, two 1.5-cm, 5% drug load", "value": 51, "unit": "%"},
      {"measurement": "body weight versus sham", "setting": "[6]; end of the 8-week study, implants", "value": "essentially the same body weight"},
      {"measurement": "reduction of the tumor", "setting": "[6]; intraperitoneally 4 mg/kg", "value": "no reduction"},
      {"measurement": "inhibition of the tumor", "setting": "[6]; intraperitoneally 8 mg/kg on alternate days", "value": 53, "unit": "%"},
      {"measurement": "burst release and local toxicity", "setting": "[1]", "value": "burst release phenomenon and sign of local toxicity"}
    ]},
    {"molecule": "vitamin E", "values": [
      {"measurement": "reduction in breast cancer incidence", "setting": "breast cancer incidence", "value": 43, "unit": "%"}
    ]}
  ]
}
